{
  "source": "patent US20050130909A1",
  "about": "(priority 2002, published 2005)",
  "key": {"dipeptide (D-Ala-D-Ala)": {"system": "dipeptide (D-Ala-D-Ala)", "assay": "ITC, preliminary experiments", "format": "binding", "settings": "absence of serum proteins"}, "[1]": {"system": "N,N′-diacetyl-Lys-D-Ala-D-Ala", "assay": "ITC of binding to tri-peptide cell-wall analog, with and without HSA", "settings": "control ITC experiments with HSA", "protocol": "Peptide concentrations were determined by weight.\nTrans. R. Soc. Lond. Ser. A-Math. Phys. Eng. […] Wiley, (1998) p 103-111; and Cooper, A., Curr. Opin. Chem. Biol. (1999) 3, 557-563."}, "Lys-D-Ala-D-Lactate": {"system": "Lys-D-Ala-D-Lactate", "assay": "ITC, preliminary experiments", "format": "binding", "settings": "absence of serum proteins"}, "Rat mass balance study": {"assay": "Rat mass balance study", "format": "in vivo, Sprague-Dawley rats", "protocol": "Mass balance studies were conducted to determine the excretion pattern of dalbavancin following a single intravenous (IV) infusion of dalbavancin in male rats.\nWater and methanol cage washes were also collected."}, "[2]": {"assay": "ESI-MS analysis of multimers in solution", "settings": "dalbavancin 0.1 mg/ml in 8:2 water:isopropanol; teicoplanin 50 and 100 μg/mL in water"}, "human α-glycoprotein": {"system": "human α-glycoprotein", "assay": "Protein binding by ITC", "settings": "protein […]10^−5 M assumed"}, "human albumin": {"biological_target": "human albumin (Homo sapiens, UniProt P02768)", "sequence (P02768 25-609)": "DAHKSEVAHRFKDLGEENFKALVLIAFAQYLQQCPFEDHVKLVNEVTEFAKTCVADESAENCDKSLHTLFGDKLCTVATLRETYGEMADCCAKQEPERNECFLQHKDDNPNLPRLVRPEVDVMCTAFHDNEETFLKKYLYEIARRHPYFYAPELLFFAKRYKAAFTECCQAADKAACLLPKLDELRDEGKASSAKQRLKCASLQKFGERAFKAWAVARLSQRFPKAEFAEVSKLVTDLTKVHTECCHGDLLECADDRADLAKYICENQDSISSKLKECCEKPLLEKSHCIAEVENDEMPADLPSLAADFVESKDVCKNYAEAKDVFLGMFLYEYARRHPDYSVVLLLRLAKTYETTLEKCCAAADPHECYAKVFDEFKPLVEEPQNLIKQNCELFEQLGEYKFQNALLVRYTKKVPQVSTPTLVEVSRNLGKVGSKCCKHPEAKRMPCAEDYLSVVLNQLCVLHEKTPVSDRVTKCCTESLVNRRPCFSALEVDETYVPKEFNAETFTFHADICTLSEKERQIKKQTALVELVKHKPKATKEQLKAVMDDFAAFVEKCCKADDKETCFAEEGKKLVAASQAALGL", "assay": "Protein binding by isothermal titration microcalorimetry (ITC)", "settings": "for Calculated percent Binding to Human albumin: albumin 6×10^−4 M assumed"}},
  "data": [
    {"compound": "CN[C@H](CC(C)C)C(=O)N[C@H]1C(=O)N[C@@H](CC(N)=O)C(=O)N[C@H]2C(=O)N[C@H]3C(=O)N[C@H](C(=O)N[C@H](C(=O)O)c4cc(O)cc(O)c4-c4cc3ccc4O)[C@H](O)c3ccc(c(Cl)c3)Oc3cc2cc(c3O[C@@H]2O[C@H](CO)[C@@H](O)[C@H](O)[C@H]2O[C@H]2C[C@](C)(N)[C@H](O)[C@H](C)O2)Oc2ccc(cc2Cl)[C@H]1O", "note": "[vancomycin, reference compound]", "values": [
      {"measurement": "Binding to dipeptide (D-Ala-D-Ala)", "setting": "dipeptide (D-Ala-D-Ala)", "result": "no evidence of binding"},
      {"measurement": "Binding to tri-peptide in the presence of HSA (control)", "setting": "[1]", "result": "comparable to those seen in the absence of HSA"},
      {"measurement": "Binding to Lys-D-Ala-D-Lactate", "setting": "Lys-D-Ala-D-Lactate", "result": "no evidence of binding"}
    ]},
    {"compound": "CN[C@H]1C(=O)N[C@@H]2Cc3ccc(cc3)Oc3cc4cc(c3O[C@@H]3O[C@H](C(=O)O)[C@@H](O)[C@H](O)[C@H]3NC(=O)CCCCCCCCC(C)C)Oc3ccc(cc3Cl)[C@@H](O)[C@@H]3NC(=O)[C@H](NC(=O)[C@@H]4NC(=O)[C@@H](NC2=O)c2cc(cc(O)c2Cl)Oc2cc1ccc2O)c1ccc(O)c(c1)-c1c(O[C@H]2O[C@H](CO)[C@@H](O)[C@H](O)[C@@H]2O)cc(O)cc1[C@@H](C(=O)NCCCN(C)C)NC3=O", "note": "[^3H-dalbavancin]", "values": [
      {"measurement": "Dose remaining in the carcass", "setting": "Rat mass balance study; 70 days post dose, mass balance study", "result": "4.5 % of the dose"},
      {"measurement": "Plasma t1/2", "setting": "Rat mass balance study; rats, single IV 20 mg/kg", "result": "approximately 1 week"}
    ]},
    {"compound": "Teicoplanin [reference compound]", "values": [
      {"measurement": "Multimers in solution", "setting": "[2]", "result": "does not show multimeric complexes in solution"},
      {"measurement": "Calculated percent Binding to Human α-glycoprotein", "setting": "human α-glycoprotein; antibiotic 1 μM", "result": 9.6, "unit": "%"},
      {"measurement": "Calculated percent Binding to Human α-glycoprotein", "setting": "human α-glycoprotein; antibiotic 10 μM", "result": 9.1, "unit": "%"},
      {"measurement": "Calculated percent Binding to Human α-glycoprotein", "setting": "human α-glycoprotein; antibiotic 100 μM", "result": 6.0, "unit": "%"},
      {"measurement": "Calculated percent Binding to Human albumin", "setting": "human albumin; antibiotic 1 μM", "result": 98.3, "unit": "%"},
      {"measurement": "Calculated percent Binding to Human albumin", "setting": "human albumin; antibiotic 10 μM", "result": 98.3, "unit": "%"},
      {"measurement": "Calculated percent Binding to Human albumin", "setting": "human albumin; antibiotic 100 μM", "result": 98.0, "unit": "%"},
      {"measurement": "Binding stoichiometry antibiotic:protein", "setting": "human albumin; binding stoichiometry modeling of ITC data", "result": "1:1 binding"}
    ]}
  ]
}
